We go through eleven compounds from ChEMBL document CHEMBL1201862, “PubChem BioAssay data set” (2004).

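Each compound was tested at five concentrations against cells in 96-well plates for 48 hours. At the GI50, growth is halved.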 Activity calls are given as the source filed them. No stated cut-off is given here; in the data, active = GI50 up to about 1.1 µM and inactive = higher.

Some test systems named below: A549; ACHN; HCT-116; M14; Malme-3M; NCI-H23; NCI-H460; NCI-H522; OVCAR-4; PC-3; SF-295; SK-MEL-2; SK-MEL-5; SNB-75; SR; SW-620; T47D; A498; HOP-92; K562.
Experiment in all cases: inhibition of tumour cell growth, NCI panel, 48 h

Take `O=C1NCc2ccccc2S(=O)(=O)n2cccc21`: the GI50 was > 100 µM (inactive) in the test on A549; > 100 µM (inactive) with ACHN; 63.1 µM (inactive) in the test with HCT-116; > 100 µM (inactive) with M14; > 100 µM (inactive) in the test on Malme-3M; > 100 µM (inactive) in the test with NCI-H23. For the same compound, the GI50 in the test on NCI-H460 was > 100 µM (inactive); in the test with NCI-H522, 85.7 µM (inactive); in the test on OVCAR-4 it was > 100 µM (inactive); in the test with PC-3, > 100 µM (inactive); with SF-295 it was > 100 µM (inactive); in the test with SK-MEL-2, 64.4 µM (inactive). The GI50 in the test with SK-MEL-5 was > 100 µM (inactive); in the test with SNB-75, > 100 µM (inactive); with SR, 6.28 µM (inactive); in the test with SW-620 it was > 100 µM (inactive); with T47D it was 50.7 µM (inactive).
For the compound `C=C1C(=O)O[C@@H]2/C=C(C)/C=C\[C@@H]3O[C@@]3(C)C[C@@H](O)C12` (stereo not given in full), the GI50 with A498 is 15.8 µM (inactive); in the test on A549, 47.5 µM (inactive); in the test with ACHN it was 5.24 µM (inactive); in the test on HCT-116 it was 8.13 µM (inactive); in the test with HOP-92, 5.98 µM (inactive); in the test on K562 it was 3.5 µM (inactive). Further, the GI50 in the test on M14 was 18.3 µM (inactive); in the test on Malme-3M, 12.7 µM (inactive); with NCI-H23, 13.2 µM (inactive); with NCI-H460, 28.9 µM (inactive); in the test on NCI-H522, 4.23 µM (inactive); in the test with OVCAR-4 it was 16.3 µM (inactive). For the same compound, the GI50 in the test on PC-3 is 24.5 µM (inactive); in the test with SF-295, 49.7 µM (inactive); in the test with SK-MEL-2 it was 30.8 µM (inactive); in the test with SK-MEL-5 it was 14.6 µM (inactive); with SNB-75, 44.3 µM (inactive); in the test with SW-620, 4.02 µM (inactive). Moreover, the GI50 in the test on T47D was 7.19 µM (inactive).
For the compound `O=S(=O)(c1ccc(Br)cc1)n1c2ccc(Br)cc2c2nc3ccccc3nc21`, the GI50 in the test with A498 was > 100 µM (inactive); with A549 it was > 100 µM (inactive); in the test on ACHN, 39.6 µM (inactive); in the test with HCT-116, > 100 µM (inactive); in the test on HOP-92, 39.7 µM (inactive); with K562, > 100 µM (inactive). The GI50 was > 100 µM (inactive) in the test with M14; > 100 µM (inactive) in the test on Malme-3M; > 100 µM (inactive) in the test on NCI-H23; > 100 µM (inactive) with NCI-H460; > 100 µM (inactive) in the test on NCI-H522; 67.9 µM (inactive) in the test on OVCAR-4. Besides, the GI50 is > 100 µM (inactive) with PC-3; 68.1 µM (inactive) in the test with SF-295; 57.5 µM (inactive) in the test with SK-MEL-2; > 100 µM (inactive) in the test on SK-MEL-5; 25.9 µM (inactive) in the test on SNB-75; > 100 µM (inactive) with SW-620. Further, in the test on T47D, the GI50 was 61.8 µM (inactive).
For `C#CCOCn1cc(C)c(=O)[nH]c1=O`, the GI50 in the test on A498, in the test on A549, in the test with ACHN, in the test on HCT-116, with K562 and with M14 was > 100 µM (inactive) each time. Further, the GI50 in the test on Malme-3M, in the test with NCI-H23, in the test on NCI-H460, in the test on PC-3, with SF-295 and in the test on SK-MEL-2 was > 100 µM (inactive) in each case. The GI50 with SK-MEL-5, with SNB-75, in the test on SR, with SW-620 and in the test with T47D was > 100 µM (inactive) throughout.
For `O=C(CSCC(=O)N/N=C/c1cccs1)N/N=C/c1cccs1`, the GI50 in the test with A498 is > 100 µM (inactive); in the test with A549, > 100 µM (inactive); in the test on ACHN, 64.4 µM (inactive); in the test with HCT-116, > 100 µM (inactive); in the test with HOP-92, 27.2 µM (inactive); with K562, > 100 µM (inactive). For the same compound, the GI50 is > 100 µM (inactive) with M14; 61 µM (inactive) in the test on Malme-3M; 38.8 µM (inactive) in the test on NCI-H23; > 100 µM (inactive) in the test on NCI-H460; 38.6 µM (inactive) in the test with NCI-H522; 45.2 µM (inactive) in the test with OVCAR-4. The GI50 is 30.6 µM (inactive) in the test with PC-3; 52.7 µM (inactive) in the test with SF-295; 93.1 µM (inactive) in the test with SK-MEL-2; 76.4 µM (inactive) in the test with SK-MEL-5; > 100 µM (inactive) in the test on SNB-75; > 100 µM (inactive) with SW-620. The GI50 with T47D was > 100 µM (inactive).
`Cc1cc2ccccc2n1CC(=O)N1CCCC1`: the GI50 with A549, with ACHN, with HCT-116, with HOP-92, in the test on K562 and in the test on M14 was > 100 µM (inactive) each time. In addition, the GI50 with Malme-3M, with NCI-H23, with NCI-H460, with NCI-H522, in the test with OVCAR-4 and in the test with PC-3 was > 100 µM (inactive) each time. Further, the GI50 in the test on SK-MEL-2, in the test with SK-MEL-5, in the test on SNB-75, with SR, with SW-620 and in the test on T47D was > 100 µM (inactive) throughout.
Take `Cc1c2ccccc2cc2nc3ccccc3n12`: the GI50 with A549, with ACHN, in the test with HCT-116, with HOP-92, in the test with K562 and with M14 was > 10 µM (inactive) throughout. In addition, the GI50 in the test with Malme-3M, in the test with NCI-H23, with NCI-H460, in the test on NCI-H522, in the test with OVCAR-4 and with PC-3 was > 10 µM (inactive) in each case. The GI50 with SF-295, in the test on SK-MEL-2, in the test on SK-MEL-5, with SNB-75, in the test on SR and in the test with SW-620 was > 10 µM (inactive) each time. For the same compound, the GI50 in the test on T47D was > 10 µM (inactive).
Regarding `CCCCC1Cc2cc(O)ccc2-c2nc3cc(O)ccc3n21.CCCCC1Cc2cc(O)ccc2-c2nc3ccc(O)cc3n21` (stereo not given), the GI50 in the test with A549 is 16.3 µM (inactive); with ACHN it was 13.9 µM (inactive); with HCT-116, 14 µM (inactive); in the test with HOP-92 it was 4.28 µM (inactive); in the test with K562 it was 10.7 µM (inactive); in the test with M14 it was 15.3 µM (inactive). For the same compound, the GI50 in the test with Malme-3M was 21.8 µM (inactive); in the test on NCI-H23 it was 21.9 µM (inactive); in the test on NCI-H460, 14.8 µM (inactive); with NCI-H522 it was 11.1 µM (inactive); in the test with OVCAR-4, 7.45 µM (inactive); in the test on PC-3, 12.6 µM (inactive). The GI50 with SF-295 was 15.2 µM (inactive); in the test on SK-MEL-5 it was 13.5 µM (inactive); with SR, 12.6 µM (inactive); with SW-620 it was 16.9 µM (inactive); in the test on T47D, 19.9 µM (inactive).
For `CC1(c2nc3ccccc3[nH]2)CCC(C(N)=O)C(C)(C)O1` (stereo not given), the GI50 in the test with A549, in the test with ACHN, with HCT-116, in the test with HOP-92, with K562 and in the test on M14 was > 100 µM (inactive) each time. Besides, the GI50 in the test with Malme-3M, in the test with NCI-H23, in the test with NCI-H522, in the test with OVCAR-4, in the test on PC-3 and with SF-295 was > 100 µM (inactive) each time. Moreover, the GI50 with SK-MEL-2, in the test on SK-MEL-5, in the test on SNB-75, in the test on SR, in the test on SW-620 and with T47D was > 100 µM (inactive) in each case.
In the case of `CC(=O)O[C@H]1C[C@H](O[C@H]2[C@@H](O)C[C@H](O[C@H]3[C@@H](O)C[C@H](O[C@H]4CC[C@@]5(C)[C@H](CC[C@@H]6[C@@H]5CC[C@]5(C)[C@@H](C7=CC(=O)OC7)CC[C@]65O)C4)O[C@@H]3C)O[C@@H]2C)O[C@H](C)[C@H]1O[C@@H]1O[C@H](CO)[C@@H](O)[C@H](O)[C@H]1O`, the GI50 is 0.0269 µM (active) in the test with A498; < 0.01 µM (active) in the test on A549; < 0.01 µM (active) in the test on ACHN; < 0.01 µM (active) with HCT-116; 0.048 µM (active) in the test with HOP-92; 0.0815 µM (active) in the test on K562. The GI50 is 0.0634 µM (active) in the test with M14; 0.0278 µM (active) in the test with Malme-3M; < 0.01 µM (active) with NCI-H23; < 0.01 µM (active) in the test with NCI-H460; < 0.01 µM (active) in the test on NCI-H522; < 0.0179 µM (active) in the test on OVCAR-4. Moreover, the GI50 was 0.0152 µM (active) in the test on PC-3; < 0.0161 µM (active) with SF-295; 0.0452 µM (active) in the test with SK-MEL-2; 0.0237 µM (active) in the test on SK-MEL-5; 0.0687 µM (active) in the test with SNB-75; 0.0202 µM (active) with SW-620. Moreover, in the test on T47D, the GI50 was 0.0387 µM (active).
Regarding `CCCCC/C=C\C=C1\C(=O)C=C[C@@H]1C/C=C\CCCC(=O)O`, the GI50 is 11.7 µM (inactive) with A498; 5.73 µM (inactive) in the test with A549; 2.72 µM (inactive) in the test with ACHN; 1.23 µM (inactive) with HCT-116; 1.62 µM (inactive) in the test on K562; 6.85 µM (inactive) with M14. Moreover, the GI50 in the test on Malme-3M is 10.2 µM (inactive); in the test with NCI-H23 it was 7.16 µM (inactive); in the test on NCI-H460, 6.04 µM (inactive); with OVCAR-4 it was 1.53 µM (inactive); with PC-3, 1.84 µM (inactive); in the test on SF-295 it was 3.87 µM (inactive). Also, the GI50 with SK-MEL-2 was 3.05 µM (inactive); in the test with SK-MEL-5 it was 3.78 µM (inactive); in the test on SNB-75 it was 9.66 µM (inactive); with SR it was 1.96 µM (inactive); with SW-620 it was 2.8 µM (inactive); with T47D, 9.35 µM (inactive).
